Marks after values point to notes of the source that are not given here.
Key:
[1] = test system: cancers that involve epithelial type tissue in the upper respiratory system; assay: Effective photosensitizer dose for PDT of cancers in the upper respiratory system; assay type: in vivo, human
Protocol: HPPH is effective at doses of only 0.08 to 0.13 mg/kg of body weight (3.5 mg/m2 of body surface area) versus a minimum of 2 mg/kg of body weight for porfimer sodium.

[2] = Duration of cutaneous photosensitivity after the photosensitizer; assay type: in vivo
Description: Further, porfimer sodium is activated by light at 630 nm, which is suboptimal for tissue penetration. In addition, in tissues found in the upper respiratory system, side effects to normal tissue proximate to a tumor site has been greater than desirable, e.g. edema and normal tissue destruction, sometimes contributing to weeks for recovery and in some cases possibly causing permanent injury to normal proximate tissue. These drawbacks have led to a search for other photosensitizers without these limitations. This is especially important with respect to cancers that interfere with respiration, e.g. nose, mouth, pharynx, larynx and trachea. Temporary interference with digestive function can be tolerated since the body can cope without food input for a significant period of time and additionally, intravenous feeding can be readily done for temporary nutrition. The same case can of course not be made when respiration is involved since interference with respiration for even a short period is exceedingly distressful and in extreme cases can be fatal. In the case of cancers that involve the upper respiratory system it is therefore exceedingly important that damage to normal tissue be avoided. […]

[3] = Ratio of normal tissue levels of two photosensitizers in mice to tumor levels; assay type: in vivo; conditions: 24 h post injection
Description: A table showing relative concentrations in normal tissue and cancer tissue for various tissue types is shown below. Ratios are shown in the form of concentration in normal tissue/concentration in tumor tissue. Lower numbers thus represent less PDT agent (HPPH or porfimer sodium) in normal tissue relative to concentration in tumor tissue. Lower concentrations in normal tissue would be expected to result in less tissue damage at tumor concentrations sufficient to destroy tumor tissue.
Ratios were obtained by dividing actual amounts of the photosensitizer in a given tissue by the amount in the tumor.
Data at 24 h post injection were used since this is the time the mice are treated by light, generally from a laser at non-thermal dose rates.

[4] = test system: squamous cell carcinoma on their larynx; assay: HPPH-PDT of a patient with squamous cell carcinoma on the larynx (Example 1); assay type: in vivo, human
Protocol: A person presented with a squamous cell carcinoma on their larynx. They refused surgery and radiation therapy and chose photodynamic therapy treatment using HPPH (2-[1-hexyloxyethyl]-2-devinyl pyropheophorbide a). They were infused over one hour with HPPH at 4 mg/m^2 (about 0.1 mg/kg). The following day they received non-thermal low power laser light treatment (150 mw/cm) at 665 nm in order to activate the photodynamic process. The light was delivered by a single quartz fiber treaded through a laryngoscope. They received 50 Joules/cm of the 665 nm light over 5.5 min.

[5] = test system: squamous cell carcinoma of the floor of the mouth; assay: HPPH-PDT of a patient with squamous cell carcinoma of the floor of the mouth (Example 2); assay type: in vivo, human
Protocol: A person presented with a squamous cell carcinoma of the floor of the mouth. They chose to have photodynamic therapy with HPPH (2-[1-hexyloxyethyl]-2-devinyl propheophorbide—a) rather than surgery or radiation therapy. They were infused with 4 mg/m^2 HPPH. The following day they received non-thermal low power laser light (150 mw/cm) at 665 nm in order to activate photodynamic process. The light was delivered by a single quartz fiber threaded through a laryngoscope. They received 50 Joules/cm of the 665 nm light over 5.5 min. […] This was resolved when examined 30 days after treatment.

T1 recurrent lesions = conditions: 26 patients, follow up of 6 to 51 months; cited from earlier work
[6] = test system: high grade dysplasia / Barrett's mucosa; conditions: 2 mg/kg, 630±5 nm, 100 to 250 joules/cm, cited from earlier work
[7] = patients after PDT; cited from earlier work
[8] = test system: squamous cell carcinoma of the larynx; conditions: cited from earlier work
[9] = 4 mg/m^2 HPPH, 50 Joules/cm at 665 nm
[10] = normalized to 5 mg/kg from data obtained at 27 mg/kg

In the case of `CCCCCCOC(C)c1c(C)c2cc3nc(c4c5[nH]c(cc6nc(cc1[nH]2)C(C)=C6CC)c(C)c5C(=O)C4)[C@@H](CCC(=O)O)[C@@H]3C` (stereo partly shown) [HPPH, 2-(1-hexyloxyethyl)-2-devinyl pyropheophorbide-a], the “Effective dose per body surface area” value ([1]; with light exposure at 665±5 nm) is reported as 3.5 mg/m2 of body surface area, the “Duration of prolonged cutaneous photosensitivity” value ([2]; in vivo) is reported as 1-2 weeks and the “Ratio concentration in normal tissue/concentration in tumor tissue: Adrenals” value [3] is reported as 0.95. For the same molecule, the “Ratio concentration in normal tissue/concentration in tumor tissue: Brain” value [3] was 0.01, the “Ratio concentration in normal tissue/concentration in tumor tissue: Kidney” value [3] was 0.12 and the “Ratio concentration in normal tissue/concentration in tumor tissue: Liver” value [3] was 1.9. For the same molecule, the “Ratio concentration in normal tissue/concentration in tumor tissue: Lung” value [3] was 2.7, the “Ratio concentration in normal tissue/concentration in tumor tissue: Muscle” value [3] was 0.095 and the “Ratio concentration in normal tissue/concentration in tumor tissue: Pancreas” value [3] was 0.11. The “Ratio concentration in normal tissue/concentration in tumor tissue: Spleen” value [3] was 0.14, the “Ratio concentration in normal tissue/concentration in tumor tissue: Urinary Bladder” value [3] was 0.11 and the Absolute Tumor Levels [3] was 3 µg/g. For the same molecule, the “Effect upon normal tissue” value [4, 9] was “No affect upon normal tissue”, the Skin photosensitivity [4, 9] was “no skin photosensitivity” and the Response to treatment ([4]; 4 mg/m^2 HPPH, 50 Joules/cm at 665 nm next day, second follow up at 3 months) was “complete response”. The “Adverse effects after treatment” value ([4]; completely resolved at first follow up 30 days after treatment) was “transient edema and hoarseness of voice”, the “Effect upon normal tissue” value [5, 9] was “No effect upon normal tissue” and the Skin photosensitivity [5, 9] was “no skin photosensitivity”. For the same molecule, the Response to treatment ([5]; 4 mg/m^2 HPPH, 50 Joules/cm at 665 nm next day, follow up at 6 months, confirmed by biopsy) was “complete response” and the “Adverse effects after treatment” value ([5]; controlled with analgesics, resolved when examined 30 days after treatment) was “transient moderate pain at the treatment site”.
In the case of porfimer sodium, the Complete response (T1 recurrent lesions) is listed as 77%, the Effective dose ([1]; with light exposure (HPPH 665±5 nm)) is listed as ≥ 2 mg/kg of body weight and the “Destruction of high grade dysplasia” value ([6]; 100 patients) is listed as “all patients treated”. The “Patients with complete ablation of Barrett's mucosa” value ([6]; 100 patients) was 43%, the “Patients with esophageal strictures” value ([6]; all patients treated) was 34% and the “Patients with complete ablation of Barrett's mucosa with PDT treatment only” value [6] was 8%. The “Patients with complete ablation who required thermal ablation of small residual islands” value [6] was 35%, the “Period of complete protection from sunlight and bright light because of skin photosensitization” value [7] was “up to 90 days” and the Recurrences ([8]; 117 patients treated for cure, follow-up to 189 months (mean 84 months)) was 10. For the same molecule, the Adverse reactions ([8]; 117 patients with squamous cell carcinoma of the larynx) was “edema and erythema”, the “Duration of prolonged cutaneous photosensitivity” value ([2]; patients after PDT) was 4-6 weeks and the “Ratio concentration in normal tissue/concentration in tumor tissue: Adrenals” value [3, 10] was 6.5^###. The “Ratio concentration in normal tissue/concentration in tumor tissue: Brain” value [3, 10] was 0.05^###, the “Ratio concentration in normal tissue/concentration in tumor tissue: Kidney” value [3] was 4 and the “Ratio concentration in normal tissue/concentration in tumor tissue: Liver” value [3] was 7. For the same molecule, the “Ratio concentration in normal tissue/concentration in tumor tissue: Lung” value [3] was 1.7, the “Ratio concentration in normal tissue/concentration in tumor tissue: Muscle” value [3] was 0.33 and the “Ratio concentration in normal tissue/concentration in tumor tissue: Pancreas” value [3, 10] was 4.3^###. The “Ratio concentration in normal tissue/concentration in tumor tissue: Skin” value [3] was “about 0.93”, the “Ratio concentration in normal tissue/concentration in tumor tissue: Skin” value ([3]; listed as PHOTOFRIN) was 0.93 and the “Ratio concentration in normal tissue/concentration in tumor tissue: Spleen” value [3, 10] was 3.1^###. For the same molecule, the “Ratio concentration in normal tissue/concentration in tumor tissue: Urinary Bladder” value [3, 10] was 5.9^### and the Absolute Tumor Levels [3] was 1.05 µg/g.

Reference: US20100056983A1, “Treatment of cancer using photodynamic therapy” (Health Research, Inc., priority 2007, published 2010)
